PubChem BioAssay AID248 (DTP/NCI, 2004)
Values joined by “and” are separate entries in the source; they are usually repeats but may differ in a detail not shown here. Identical values can stand only once. Inconclusive results and toxic doses are left out. Rule as the data show it: active = T/C of 150% or more; inactive = T/C below 125%.

Test system: L1210 leukemia ip in BDF1 mice, survival T/C
Assay: NCI In Vivo Anticancer Drug Screen. Data for tumor model L1210 Leukemia (intraperitoneal) in B6D2F1 (BDF1) mice
Settings: endpoint: mean survival time, higher = longer survival
Outline: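 Survival endpoint. Drug-treated group vs vehicle group, expressed as T divided by C. Tumor passaged by transplantation.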

[1] = dose: 100.0 mg/kg/injection, schedule: Q01DX009 (ip), vehicle: Klucel (hydroxypropylcellulose) (HPC)
[2] = dose: 200.0 mg/kg/injection, schedule: Q01DX009 (ip), vehicle: Klucel (hydroxypropylcellulose) (HPC)
[3] = dose: 400.0 mg/kg/injection, schedule: Q01DX009 (ip), vehicle: Klucel (hydroxypropylcellulose) (HPC)
[4] = dose: 50.0 mg/kg/injection, schedule: Q01DX001 (ip), vehicle: carboxymethylcellulose (CMC)
[5] = dose: 100.0 mg/kg/injection, schedule: Q01DX001 (ip), vehicle: carboxymethylcellulose (CMC)
[6] = dose: 400.0 mg/kg/injection, schedule: Q01DX001 (ip), vehicle: carboxymethylcellulose (CMC)
[7] = dose: 50.0 mg/kg/injection, schedule: Q01DX001 (ip), vehicle: saline
[8] = dose: 100.0 mg/kg/injection, schedule: Q01DX001 (ip), vehicle: saline
[9] = dose: 50.0 mg/kg/injection, schedule: Q01DX009 (ip), vehicle: saline with Tween-80
[10] = dose: 100.0 mg/kg/injection, schedule: Q01DX009 (ip), vehicle: saline with Tween-80
[11] = dose: 200.0 mg/kg/injection, schedule: Q01DX009 (ip), vehicle: saline with Tween-80
[12] = dose: 200.0 mg/kg/injection, schedule: Q01DX001 (ip), vehicle: carboxymethylcellulose (CMC)
[13] = dose: 100.0 mg/kg/injection, schedule: Q04DX003 (ip), vehicle: Klucel (hydroxypropylcellulose) (HPC)
[14] = dose: 200.0 mg/kg/injection, schedule: Q01DX001 (ip), vehicle: saline
[15] = dose: 400.0 mg/kg/injection, schedule: Q01DX001 (ip), vehicle: saline
[16] = dose: 100.0 mg/kg/injection, schedule: Q04DX003 (ip), vehicle: saline
[17] = dose: 200.0 mg/kg/injection, schedule: Q04DX003 (ip), vehicle: saline
[18] = dose: 400.0 mg/kg/injection, schedule: Q04DX003 (ip), vehicle: saline
[19] = dose: 100.0 mg/kg/injection, schedule: Q01DX009 (ip), vehicle: saline
[20] = dose: 200.0 mg/kg/injection, schedule: Q01DX009 (ip), vehicle: saline
[21] = dose: 400.0 mg/kg/injection, schedule: Q01DX009 (ip), vehicle: saline

Measured: T/C

O=[N+]([O-])c1cccc(C=Nc2ccccc2F)c1
inactive: [1] 94 % of control | [2] 98 % of control | [3] 98 % of control

NC(CSc1ccc([N+](=O)[O-])cc1Cl)C(=O)O (stereo not given)
inactive: dose: 75.0 mg/kg/injection, schedule: Q01DX001 (ip), vehicle: saline 100 % of control | dose: 150.0 mg/kg/injection, schedule: Q01DX001 (ip), vehicle: saline 90 % of control | dose: 300.0 mg/kg/injection, schedule: Q01DX001 (ip), vehicle: saline 92 % of control

C(=N\c1nncs1)/Nc1nncs1
inactive: dose: 40.0 mg/kg/injection, schedule: Q01DX015 (ip), vehicle: carboxymethylcellulose (CMC) 114 % of control and 118 % of control | [4] 102 % of control | dose: 60.0 mg/kg/injection, schedule: Q01DX015 (ip), vehicle: carboxymethylcellulose (CMC) 94 % of control | dose: 90.0 mg/kg/injection, schedule: Q01DX015 (ip), vehicle: carboxymethylcellulose (CMC) 118 % of control | [5] 98 % of control | dose: 135.0 mg/kg/injection, schedule: Q01DX015 (ip), vehicle: carboxymethylcellulose (CMC) 88 % of control | [6] 124 % of control

O=C(OC1c2cccc3cccc(c23)C1O)c1ccccc1 (stereo not given)
inactive: dose: 100.0 mg/kg/injection, schedule: Q04DX003 (ip), vehicle: other 95 % of control | dose: 200.0 mg/kg/injection, schedule: Q04DX003 (ip), vehicle: other 93 % of control | dose: 400.0 mg/kg/injection, schedule: Q04DX003 (ip), vehicle: other 90 % of control

COc1cccc(N=CN(C)C)c1
inactive: [7] 90 % of control | [8] 104 % of control

NS(=O)(=O)c1ccc(N=Nc2nc3[nH]c(=O)[nH]c(=O)c3[nH]2)cc1
inactive: [9] 97 % of control | [10] 94 % of control | [11] 94 % of control

O=C(c1ccccc1)c1ccc(C2CCCCC2)cc1
inactive: [4] 98 % of control | [5] 104 % of control | [12] 98 % of control | [6] 100 % of control

O=[N+]([O-])Cc1c2ccccc2nc2ccccc12
inactive: [9] 87 % of control | [10] 87 % of control | [11] 87 % of control

NC(=O)NN=C(CS)CS
inactive: dose: 0.5 mg/kg/injection, schedule: Q01DX015 (ip), vehicle: carboxymethylcellulose (CMC) 93 % of control | dose: 1.0 mg/kg/injection, schedule: Q01DX015 (ip), vehicle: carboxymethylcellulose (CMC) 98 % of control | dose: 2.0 mg/kg/injection, schedule: Q01DX015 (ip), vehicle: carboxymethylcellulose (CMC) 96 % of control | dose: 4.0 mg/kg/injection, schedule: Q01DX015 (ip), vehicle: carboxymethylcellulose (CMC) 98 % of control and 104 % of control | dose: 5.0 mg/kg/injection, schedule: Q01DX001 (ip), vehicle: other 97 % of control | dose: 8.0 mg/kg/injection, schedule: Q01DX015 (ip), vehicle: carboxymethylcellulose (CMC) 98 % of control | dose: 10.0 mg/kg/injection, schedule: Q01DX001 (ip), vehicle: other 97 % of control | dose: 16.0 mg/kg/injection, schedule: Q01DX015 (ip), vehicle: carboxymethylcellulose (CMC) 98 % of control | dose: 20.0 mg/kg/injection, schedule: Q01DX001 (ip), vehicle: other 94 % of control | dose: 25.0 mg/kg/injection, schedule: Q04DX003 (ip), vehicle: Klucel (hydroxypropylcellulose) (HPC) 104 % of control | dose: 32.0 mg/kg/injection, schedule: Q01DX015 (ip), vehicle: carboxymethylcellulose (CMC) 98 % of control | dose: 40.0 mg/kg/injection, schedule: Q01DX001 (ip), vehicle: other 97 % of control | dose: 50.0 mg/kg/injection, schedule: Q04DX003 (ip), vehicle: Klucel (hydroxypropylcellulose) (HPC) 101 % of control | dose: 80.0 mg/kg/injection, schedule: Q01DX001 (ip), vehicle: other 95 % of control | [13] 101 % of control

Cc1cc2nc(/C(C#N)=C/c3cc(Cl)cc(Cl)c3O)[nH]c2cc1C
inactive: dose: 100.0 mg/kg/injection, schedule: Q01DX009 (ip), vehicle: other 93 % of control | dose: 200.0 mg/kg/injection, schedule: Q01DX009 (ip), vehicle: other 104 % of control | dose: 400.0 mg/kg/injection, schedule: Q01DX009 (ip), vehicle: other 93 % of control

O=C(O)c1cc(=O)c2c(OCC(O)COc3cccc4oc(C(=O)O)cc(=O)c34)cccc2o1
inactive: [8] 100 % of control | [14] 102 % of control | [15] 94 % of control

CCCCCC(=O)CC(=O)c1cccs1
inactive: dose: 200.0 mg/kg/injection, schedule: Q01DX Z (ip), vehicle: other 100 % of control | dose: 400.0 mg/kg/injection, schedule: Q01DX Z (ip), vehicle: other 103 % of control

CCOc1ccc(NC(=O)c2ccccc2Cl)cc1
inactive: [1] 98 % of control | [2] 95 % of control | [3] 103 % of control

O=C(O)c1cc(O)c(O)cc1O
inactive: [5] 98 % of control | [12] 108 % of control | [6] 92 % of control

NC(=O)CCC(C(=O)O)N1C(=O)C2C3CCC(C3)C2C1=O (stereo not given)
inactive: [16] 98 % of control | [17] 95 % of control | [18] 95 % of control

CCC1(Cl)C(=O)OCc2c1cc1n(c2=O)Cc2cc3ccccc3nc2-1 (stereo not given)
inactive: dose: 1.0 mg/kg/injection, schedule: Q01DX001 (ip), vehicle: saline 97 % of control | dose: 1.0 mg/kg/injection, schedule: Q01DX Z (ip), vehicle: saline 100 % of control | dose: 2.0 mg/kg/injection, schedule: Q01DX001 (ip), vehicle: saline 101 % of control | dose: 2.0 mg/kg/injection, schedule: Q01DX Z (ip), vehicle: saline 95 % of control | dose: 4.0 mg/kg/injection, schedule: Q01DX001 (ip), vehicle: saline 100 % of control | dose: 4.0 mg/kg/injection, schedule: Q01DX Z (ip), vehicle: saline 97 % of control | dose: 6.0 mg/kg/injection, schedule: Q01DX001 (ip), vehicle: saline 95 % of control | dose: 6.0 mg/kg/injection, schedule: Q01DX Z (ip), vehicle: saline 103 % of control

c1cc[c]([Sn]([c]2ccccc2)([c]2ccccc2)[CH]2CCCCC2)cc1
inactive: [16] 89 % of control | [17] 93 % of control | [18] 89 % of control

C/C=C/C(OC(C)=O)OC(C)=O
inactive: [9] 101 % of control | [10] 101 % of control | [11] 101 % of control

Cc1coc(NS(=O)(=O)c2ccc(N=Nc3c(N)nc(N)nc3N)cc2)c1C
inactive: [8] 97 % of control | [14] 94 % of control | [15] 97 % of control

Cc1cc(OC(=O)Nc2ccc(Cl)c(Cl)c2)ccc1Cl
inactive: [1] 102 % of control | [13] 96 % of control | [2] 98 % of control | dose: 200.0 mg/kg/injection, schedule: Q04DX003 (ip), vehicle: Klucel (hydroxypropylcellulose) (HPC) 104 % of control | [3] 95 % of control | dose: 400.0 mg/kg/injection, schedule: Q04DX003 (ip), vehicle: Klucel (hydroxypropylcellulose) (HPC) 101 % of control

CCCCCC(Oc1ccc(Cl)cc1)C(=O)OCC (stereo not given)
inactive: [19] 101 % of control | [20] 90 % of control | [21] 114 % of control

Nc1ncnc2c1ncn2C1OC(CO)C(O)C1N (stereo not given)
inactive: [4] 100 % of control | [7] 103 % of control and 108 % of control | [5] 110 % of control | [8] 98 % of control and 103 % of control | [12] 100 % of control | [14] 90 % of control and 108 % of control | [6] 98 % of control | [15] 100 % of control and 116 % of control

COc1cc(/C(C)=N/N=C(\C)c2ccc(O)c(OC)c2)ccc1O
inactive: [19] 94 % of control | [20] 90 % of control | [21] 90 % of control

CC[N+]1(CC)N=C([O-])N(C)C1=O
inactive: [10] 101 % of control | [11] 101 % of control | dose: 400.0 mg/kg/injection, schedule: Q01DX009 (ip), vehicle: saline with Tween-80 103 % of control

CN=C1C2CCC(C2)CC1(O)c1ccccc1 (stereo not given)
inactive: [7] 102 % of control | [8] 102 % of control

CCCCCCCCCCCCCCCCS(=O)(=O)N/N=C/c1ccc(Cl)c([N+](=O)[O-])c1
inactive: [5] 98 % of control | [12] 107 % of control | [6] 103 % of control
